No end group written: not given here.
Assays:
[1] = tested on: rat pituitary cells in tissue culture; assay: stimulation of growth hormone production in rat pituitary cells in tissue culture (RIA for rat growth hormone); assay type: cell-based
Protocol: Biological activity of the synthetic GRF(1-44)NH2 was identical to the natural GRF(1-44)NH2 which was isolated from a human pancreatic tumor of an individual suffering from acromegaly (Salk Institute standard hGRF--NH2 (NL-A-10)). The assay for biological activity, which is based on the ability to stimulate production of growth hormone in rat pituitary cells in tissue culture, was performed in the following manner.
Pituitaries from 30-40 male Sprague-Dawley rats (175 g) were removed aseptically after decapitation. The anterior lobes were collected, washed 3 times in sterile Hepes buffer (0.025M) (pH 7.35) and dispersed at 37° C. in 20-30 ml Hepes buffer (pH 7.35) containing collagenase (4 mg per ml) and Dispase (Protease grade II, 2 mg per ml). After gentle 100-110-min. vortexing and trituration by Pasteur pipette, the dispersed cells were separated by centrifugation (150×g, 4 min) and re-suspended in Hepes buffer containing neuraminidase (8 μg/ml), and 200 µg/ml ethylenedinitrisotetraacetic acid (EDTA) disodium salt pH 7.35, for 10 min. The cells were washed twice with plating medium and plated on multiwell-plates (1.5×10^5 cells per ml) using the following defined medium: F-12/DMEM/(6:3:1) (Gibco: 430-1700/430-1600/320-2591) with 2 g BSA/l., 2.38 g Hepes/1.50 mg PSN antibiotic mixture (Gibco Laboratories). The medium in each well was supplemented either with a sample of the novel GRF peptide or natural GRF(1-44)--NH2 at concentrations ranging from 0.8 to 200 fmol. per ml. of medium. Control wells contained no supplement. Plating was done with this medium added with 2% fetal calf serum to ensure rapid fixation of the cells. On the fourth day the cells were washed twice with the defined medium without fetal calf serum. Finally 900 μl of defined medium was added to each well plus 100 μl of the same medium containing each individual treatment, in triplicate. After 4 hours of incubation the medium was collected and diluted as required to conduct radioimmunoassay (RIAs) for rat growth hormone. […]

[2] = Rivier and Vale et al., Nature 300, 276-278 (1982); cited from earlier work

CC[C@H](C)[C@H](NC(=O)[C@H](C)NC(=O)[C@H](CC(=O)O)NC(=O)[C@H](C)NC(=O)[C@@H](N)Cc1ccc(O)cc1)C(=O)N[C@@H](Cc1ccccc1)C(=O)N[C@H](C(=O)N[C@@H](CC(N)=O)C(=O)N[C@@H](CO)C(=O)N[C@@H](Cc1ccc(O)cc1)C(=O)N[C@@H](CCCNC(=N)N)C(=O)N[C@@H](CCCCN)C(=O)N[C@H](C(=O)N[C@@H](CC(C)C)C(=O)NCC(=O)N[C@@H](CCC(N)=O)C(=O)N[C@@H](CC(C)C)C(=O)N[C@@H](CO)C(=O)N[C@@H](C)C(=O)N[C@@H](CCCNC(=N)N)C(=O)N[C@@H](CCCCN)C(=O)N[C@@H](CC(C)C)C(=O)N[C@@H](CC(C)C)C(=O)N[C@@H](CCC(N)=O)C(=O)N[C@@H](CC(=O)O)C(=O)N[C@H](C(=O)N[C@@H](CCSC)C(=O)N[C@@H](CO)C(=O)N[C@@H](CCCNC(=N)N)C(=O)N[C@@H](CCC(N)=O)C(=O)N[C@@H](CCC(N)=O)C(=O)NCC(=O)N[C@@H](CCC(=O)O)C(=O)N[C@@H](CO)C(=O)N[C@@H](CC(N)=O)C(=O)N[C@@H](CCC(N)=O)C(=O)N[C@@H](CCC(=O)O)C(=O)N[C@@H](CCCNC(=N)N)C(=O)NCC(=O)N[C@@H](C)C(=O)N[C@@H](CCCNC(=N)N)C(=O)N[C@@H](C)C(=O)N[C@@H](CCCNC(=N)N)C(=O)N[C@@H](CC(C)C)C(N)=O)[C@@H](C)CC)C(C)C)[C@@H](C)O [GRF(1-44)NH2]
biological activity compared with natural GRF(1-44)NH2 (Salk Institute standard hGRF-NH2 (NL-A-10)) ([1]; synthetic versus natural peptide isolated from a human pancreatic tumor): identical

GRF(1-29)NH2
intrinsic activity and potency in vitro [2]: full intrinsic activity and potency

YADAIFTNSYRKVLAQLSARKLLQDIMSR-NH2 [(Ala^15)-GRF(1-29)NH2, [Ala^15]-hGRF(1-29)-NH2]
potency relative to GRF(1-29)NH2 (unsubstituted shortened GRF) ([1]; growth hormone release, 4 hours of incubation): 4.1 times | potency relative to GRF (1-44)NH2 ([1]; on a weight for weight basis, growth hormone release, 4 hours of incubation): 5.1 times

— patent US4622312A, “Growth hormone releasing factor analogs” (Hoffmann-La Roche Inc., priority 1984, dated 1986)
